{"source": "patent US20080081823A1", "about": "“PIPECOLIC ACID-CONTAINING ANTIDIABETIC COMPOSITIONS” (Ajinomoto Co., Inc., priority 2006, published 2008)", "key": {"[1]": {"test_system": "model mice with Type II diabetes", "assay": "Autopsy: weights of epididymal fats and perinephric fats in model mice with Type II diabetes", "assay_type": "in vivo, Male KK-Ay mice", "conditions": "KK-Ay mice, feed adding 0.8%, autopsy at tenth week", "protocol": "(§1) (c) 24 KK-Ay mice were divided into 3 groups based on their body weights, and the blood glucose levels and transitions of the blood insulin concentrations when injected glucose. Feeds adding 0, 0.4 or 0.8% D,L pipecolic acid were provided to each group for 10 weeks. At the second and eighth weeks after starting the test, their blood glucose levels and blood insulin concentrations after oral injection of glucose were measured. At the ninth week, the insulin tolerance test was conducted, and at the tenth week, autopsy was conducted to the samples to measure weights of epididymal fats and perinephric fats.\n(§2) (c) Farming mice: 24 male KK-Ay mice of 5 weeks old were purchased from Clea Japan, Inc. and each was separately farmed in an animal room in a light-dark cycle of 12 hours (7:00 to 19:00) at room temperature of 25° C. Then, KK-Ay mice were divided into 3 groups based on their blood glucose levels and blood insulin concentrations measured when giving glucose. […] At the second and eighth weeks, the oral glucose tolerance test was conducted, and their blood glucoses and blood insulin concentrations after oral injection of glucose were measured. […] Then, at the tenth week, autopsy was conducted to the samples, and weights of epididymal fats and perinephric fats were measured to see effects of pipecolic acid on weights of visceral fats. […]"}, "[2]": {"test_system": "model mice with Type II diabetes", "assay": "Measurement of lipids in the liver of model mice with Type II diabetes", "assay_type": "in vivo, Male KK-Ay mice", "conditions": "KK-Ay mice", "protocol": "(§3) (a) It was examined whether D,L pipecolic acid has an effect on blood and liver lipids of model mice with Type II diabetes.\n(§4) (b) Male KK-Ay mice of 6 weeks old were used to start the experiment.\n(§5) (c) 16 KK-Ay mice were divided into 2 groups based on their body weights. Feeds wherein 0 or 1.6% D,L pipecolic acid was added were provided to each group for 5 weeks. At the fifth week, they were fasted, and their blood was collected and their livers were extracted to measure their fasting blood triglyceride, fasting blood total cholesterol, fasting free fatty acids in the blood, total lipids in the liver, liver triglyceride and liver total cholesterol.\n(§6) (b) Preparation of feeds: D,L pipecolic acid (produced by Aldrich) was mixed in small portions with a commercial feed (CRF-1, produced by Oriental Yeast Co., Ltd.) and further mixed together for 5 minutes by using a universal mixer (produced by Dalton Corporation).\n(§7) (c) Farming mice: 16 (2 experimental sections×8) male KK-Ay mice of 4 weeks old were purchased from Clea Japan, Inc. and each was separately farmed in an animal room in a light-dark cycle of 12 hours (7:00 to 19:00) at room temperature of 25° C. After naturalizing two weeks, they were divided into 2 groups based on their body weights, and the above feeds were provided to them for 5 weeks. Every Mondays, Wednesdays and Fridays during the period, their body weights and amounts of food ingested were measured, and the feeds were added. After 5 weeks passed, they were fasted for 17 hours, their blood was collected and their livers were extracted. The fasting blood triglyceride, fasting blood total cholesterol, fasting free fatty acids in the blood, total lipids in the liver, liver triglyceride and liver total cholesterol were measured by using those samples.\n(e) Measurement of lipids in the liver: About 0.5 g of a liver sample is homogenized in 10 mL of chloroform/methanol (2:1) solution, and lipids are extracted overnight. […] 5 mL thereof is concentrated by drying with a centrifugal evaporator, and its weight measured becomes total lipids in the liver. […]"}, "[3]": {"test_system": "model mice with Type II diabetes", "assay": "Oral glucose tolerance test in model mice with Type II diabetes", "assay_type": "in vivo, Male KK-Ay mice", "conditions": "KK-Ay mice; for increase of blood glucose in the oral glucose tolerance test: feed adding 0.4%", "source_text": "(a) It was examined whether D,L pipecolic acid has an effect of improving the pathology of model mice with Type II diabetes.\n(b) Male KK-Ay mice, which are the model mice with Type II diabetes, were used to start the experiment.\nas §1, with “fats. […]” for “fats.”\n(c) Farming mice: 24 male KK-Ay mice of 5 weeks old were purchased from Clea Japan, Inc. and each was separately farmed in an animal room in a light-dark cycle of 12 hours (7:00 to 19:00) at room temperature of 25° C. Then, KK-Ay mice were divided into 3 groups based on their blood glucose levels and blood insulin concentrations measured when giving glucose. […] At the second and eighth weeks, the oral glucose tolerance test was conducted, and their blood glucoses and blood insulin concentrations after oral injection of glucose were measured. […] Then, at the tenth week, autopsy was conducted to the samples, and weights of epididymal fats and perinephric fats were measured to see effects of pipecolic acid on weights of visceral fats.\n(d) Oral glucose tolerance test: Fasting was started at 20:00 of the day before the test. […] 0, 30, 60, 120, 180, and 240 minutes after the administration, their blood was collected and their blood glucose levels and blood insulin concentrations were measured. The blood glucose levels were promptly measured after the blood collection by using a biochemical auto-analyzer for animals (Fuji DriChem 5500, produced by Fuji Photo Film Co., Ltd.). […]"}, "normal rats": {"test_system": "normal rats", "assay": "Oral glucose tolerance test in normal rats provided with pipecolic acid feed for 4 weeks", "assay_type": "in vivo, Male SD rats", "conditions": "normal SD rats", "source_text": "(a) It was examined whether the increase of the blood glucose after oral injection of glucose to normal rats could be inhibited by providing them with D,L pipecolic acid for 4 weeks.\n(b) Male SD rats of 9 weeks old were used to start the experiment.\n(c) 24 normal rats were divided into 3 groups (each group consisting of 8 rats) so that their fasting blood glucose and body weights became the same. Feeds adding 0, 0.2 or 0.4% D,L pipecolic acid were provided to each group for 4 weeks. Then, they were fasted for 17 hours, and 10% glucose solution was orally administered to them in its provided amount of 2 g/kg of body weight. At 0, 15, 30, 60, and 120 minutes after the administration, the blood glucose level and blood insulin concentration were measured.\nas §6\n(c) Farming rats: 24 (3 experimental sections×8) male SD rats of 7 weeks old were purchased from Charles River Laboratories Japan, Inc. and each was separately farmed in an animal room in a light-dark cycle of 12 hours (7:00 to 19:00) at room temperature of 25° C. After habituation for two weeks, they were divided into 3 groups based on their body weights and fasting blood glucoses, and then the above feeds were provided for 4 weeks. Every Mondays, Wednesdays and Fridays during the period, their body weights and amounts of food ingested were measured, and the feeds were added. 4 weeks later, the oral glucose tolerance test was conducted.\n(d) Oral glucose tolerance test: Fasting was started at 17:00 of the day before the test. At 10:00 of the test day, 10% glucose solution was orally administered to the rats in its provided amount of 2 g/kg of body weight. 0, 15, 30, 60, and 120 minutes after the administration, their blood was collected and their blood glucose levels and blood insulin concentrations were measured. The blood glucose levels were promptly measured after the blood collection by using a biochemical auto-analyzer for animals (Fuji DriChem 5500, produced by Fuji Photo Film Co., Ltd.). Further, the collected blood was centrifuged with a centrifuge (himac CF15D, produced by IlitachiKoki Co., Ltd) to take out the blood plasma, and the blood insulin concentrations were measured by using an insulin measurement kit (produced by Morinaga Institute of Biochemical Science, Inc.). FIG. 1A and FIG. 1B indicate the blood glucose transitions and the area under the blood glucose concentration time curve; and FIG. 1C indicates transitions of the blood insulin concentration."}, "[4]": {"test_system": "model mice with Type II diabetes", "assay": "Measurement of lipids in the blood of model mice with Type II diabetes", "assay_type": "in vivo, Male KK-Ay mice", "conditions": "KK-Ay mice, feed adding 1.6% for 5 weeks, fasting, average value", "protocol": "as §3, §4\nas §5, with “cholesterol. […]” for “cholesterol.”\nas §7, with “After naturalizing two weeks, they were divided into 2 groups based on their body weights, and the above feeds were provided to them for 5 weeks.” left out, “After 5 weeks passed, they were fasted for 17 hours, their blood was collected and their livers were extracted.” left out, “samples. […]” for “samples.”"}, "obese model rats": {"test_system": "obese model rats", "assay": "Oral glucose tolerance test in obese model rats (high-fat diets) provided with pipecolic acid for 4 weeks", "assay_type": "in vivo, Male SD rats", "conditions": "0.2 or 0.4% added to high-fat diets for 4 weeks", "source_text": "(a) It is reported that obese model rats produced by giving high-fat diets express insulin resistance and develop hyperinsulinemia. It was examined whether the increase of the blood glucose and blood insulin concentration after oral injection of glucose to these obese model rats could be inhibited by providing them with D,L pipecolic acid for 4 weeks.\n(b) Male SD rats of 6 weeks old were used to start the experiment.\n(c) 48 rats were divided into 2 groups so that their fasting blood glucoses and body weights became the same. Normal diets or high-fat diets were given to them for 3 weeks (model production period). […] 0, 15, 30, 60, and 120 minutes after the administration, their blood glucose levels and blood insulin concentrations were measured. […]\n(d) Farming rats: 48 (6 experimental sections×8) male SD rats of 5 weeks old were purchased from Charles River Laboratories Japan, Inc. and each was separately farmed in an animal room in a light-dark cycle of 12 hours (7:00 to 19:00) at room temperature of 25° C. […] Every Mondays, Wednesdays and Fridays during all periods starting from the model production period to the end of the test period, their body weights and amounts of food ingested were measured, and the feeds were added. […]"}, "[5]": {"test_system": "model mice with Type II diabetes", "assay": "Insulin tolerance test in model mice with Type II diabetes", "assay_type": "in vivo, Male KK-Ay mice", "conditions": "KK-Ay mice, feed adding 0.8%, ninth week, insulin 0.5 U/kg subcutaneous, compared with additive-free group", "protocol": "as §1, §2"}, "[6]": {"conditions": "feed adding 1.6% for 5 weeks, average value"}, "[7]": {"conditions": "feed adding 0.4% for 4 weeks, glucose 2 g/kg oral"}}, "data": [{"smiles": "O=C(O)C1CCCCN1", "note": "(centres unmarked) [D,L pipecolic acid]", "values": [{"measurement": "weights of epididymal fats", "setting": "[1]", "value": "decreased"}, {"measurement": "weights of perinephric fats", "setting": "[1]", "value": "decreased"}, {"measurement": "total lipids in the liver", "setting": "[2]; feed adding 0 or 1.6% for 5 weeks", "value": "significantly correlate with the additive amount of pipecolic acid"}, {"measurement": "decrease of liver total cholesterol as compared with the control group", "setting": "[2]; [6]", "value": "about 20%"}, {"measurement": "decrease of liver triglyceride as compared with the control group", "setting": "[2]; [6]", "value": "about 20%"}, {"measurement": "increase of blood glucose in the oral glucose tolerance test", "setting": "[3]; eighth week", "value": "no strong effect of inhibiting the increase of the blood glucose was confirmed"}, {"measurement": "increase of blood glucose in the oral glucose tolerance test", "setting": "[3]; second week, compared with additive-free group", "value": "inhibited"}, {"measurement": "increase of the blood glucose after injection of glucose", "setting": "[3]; feed adding 0.8%, until the eighth week", "value": "effect of inhibiting the increase of the blood glucose after injection of glucose was seen"}, {"measurement": "increase of the blood glucose after oral injection of glucose", "setting": "normal rats; feed adding 0.2% for 4 weeks, glucose 2 g/kg oral", "value": "inhibited"}, {"measurement": "blood insulin concentration", "setting": "normal rats; feed adding 0.2 or 0.4% for 4 weeks, any group and any time period after glucose", "value": "did not change"}, {"measurement": "blood glucose of 30 and 60 minutes after the administration", "setting": "normal rats; [7]", "value": "decreased"}, {"measurement": "increase of the blood glucose after oral injection of glucose", "setting": "normal rats; [7]", "value": "inhibited"}, {"measurement": "decrease of blood triglyceride as compared with the control group", "setting": "[4]", "value": "about 20%"}, {"measurement": "decrease of free fatty acids in the blood as compared with the control group", "setting": "[4]", "value": "about 20%"}, {"measurement": "blood insulin concentration", "setting": "obese model rats; after glucose 2 g/kg oral", "value": "decreased to around the same extent as that of the normal diet groups"}, {"measurement": "increase of the blood glucose after giving glucose", "setting": "obese model rats; glucose 2 g/kg oral", "value": "hardly inhibited"}, {"measurement": "decrease of the blood glucose after administering insulin", "setting": "[5]", "value": "promoted"}]}]}
